In ChEMBL document CHEMBL3352247, “Synthesis and antimycobacterial evaluation of 5-alkylamino-N-phenylpyrazine-2-carboxamides” (Bioorg Med Chem, 2015) one finds Activity and MIC data, which are given here for eight compounds.

One test concerns Pichia kudriavzevii. The test can be described thus: Antifungal activity against Candida krusei E28 after 24 to 48 hrs by two-fold dilution method. It counts as functional, organism-based.
A short description of test [1]: Antimycobacterial activity against Mycobacterium avium subsp. avium Chester CNCTC My 80/72 in Middlebrook 7H9 broth after 5 days by AlamarBlue assay. It counts as functional. The following applies: Chester CNCTC My 80/72, 120 h. On the technique in general: Alamar Blue is a resazurin reagent that responds to reducing activity.
The next test deals with Pseudomonas aeruginosa. The test can be described thus: Antibacterial activity against Pseudomonas aeruginosa CCM 1961 after 24 to 48 hrs by broth microdilution method. The format is functional, organism-based. Background: Dilution methods test growth across graded concentrations, often in twofold steps.
In the next test the test system is Aspergillus fumigatus. The test can be described thus: Antifungal activity against Aspergillus fumigatus 231 after 24 to 48 hrs by two-fold dilution method. It counts as functional, organism-based.
Test [2] has as its system Staphylococcus aureus. The test can be described thus: Antibacterial activity against methicillin-resistant Staphylococcus aureus H 5996/08 clinical isolate after 24 to 48 hrs by broth microdilution method. It counts as functional, organism-based.
Test [3] concerns Trichophyton mentagrophytes. The test can be described thus: Antifungal activity against Trichophyton mentagrophytes 445 after 72 to 120 hrs by two-fold dilution method. The format is functional, organism-based.
Another test deals with Trichosporon asahii. The test can be described thus: Antifungal activity against Trichosporon asahii 1188 after 24 to 48 hrs by two-fold dilution method. The format is functional, organism-based.
Test [4] deals with Klebsiella pneumoniae. The test can be described thus: Antibacterial activity against Klebsiella pneumoniae D 11750/08 clinical isolate after 24 to 48 hrs by broth microdilution method. It counts as functional, organism-based.
The next test deals with Lichtheimia corymbifera. The test can be described thus: Antifungal activity against Absidia corymbifera 272 after 24 to 48 hrs by two-fold dilution method. It counts as functional, organism-based.
A further test concerns Candida tropicalis. The test can be described thus: Antifungal activity against Candida tropicalis 156 after 24 to 48 hrs by two-fold dilution method. The format is functional, organism-based.
For test [5], the system named is Mycobacterium tuberculosis. The test can be described thus: Antimycobacterial activity against Mycobacterium tuberculosis H37Rv CNCTC My 331/88 in Middlebrook 7H9 broth after 5 days by AlamarBlue assay. It counts as functional. The following applies: H37Rv CNCTC My 331/88, 120 h.
For test [6], the system named is Staphylococcus epidermidis. The test can be described thus: Antibacterial activity against Staphylococcus epidermidis H 6966/08 clinical isolate after 24 to 48 hrs by broth microdilution method. It counts as functional, organism-based.
The next test relates to Enterococcus sp. The test can be described thus: Antibacterial activity against Enterococcus sp. J 14365/08 clinical isolate after 24 to 48 hrs by broth microdilution method. It counts as functional, organism-based.
Test [7] concerns Klebsiella pneumoniae. The test can be described thus: Antibacterial activity against ESBL-positive Klebsiella pneumoniae J 14368/08 clinical isolate after 24 to 48 hrs by broth microdilution method. It counts as functional, organism-based.
The next test concerns Mycobacterium kansasii. The test can be described thus: Antimycobacterial activity against Mycobacterium kansasii CNCTC My 235/80 in Middlebrook 7H9 broth after 5 days by AlamarBlue assay. The format is functional. The note with it: CNCTC My 235/80, 120 h.
Another test has as its system Escherichia coli. The test can be described thus: Antibacterial activity against Escherichia coli CCM 4517 after 24 to 48 hrs by broth microdilution method. It counts as functional, organism-based.
Another test relates to Nakaseomyces glabratus. The test can be described thus: Antifungal activity against Candida glabrata 20/I after 24 to 48 hrs by two-fold dilution method. The format is functional, organism-based.
Test [8] deals with Staphylococcus aureus. The test can be described thus: Antibacterial activity against Staphylococcus aureus CCM 4516/08 after 24 to 48 hrs by broth microdilution method. It counts as functional, organism-based.
The next test relates to Candida albicans. The test can be described thus: Antifungal activity against Candida albicans ATCC 44859 after 24 to 48 hrs by two-fold dilution method. The format is functional, organism-based.

Calls of active or inactive are those of the source. No cut-off for these calls is given here. Where only a bound is given, the exact number is not on record here.

A word on the MIC: it is the lowest concentration found to suppress growth. A high value points to a less susceptible organism.

For `O=C(Nc1ccccc1)c1cnc(NCCc2ccccc2)cn1`, the result (in the test with Pichia kudriavzevii; with Pseudomonas aeruginosa; with Aspergillus fumigatus; with Staphylococcus aureus [2]; in [3]; in the test with Trichosporon asahii) was inactive. Further, the result (in the test on Klebsiella pneumoniae [4]; in the test on Lichtheimia corymbifera; with Candida tropicalis; in test [6]; in the test on Enterococcus sp.; in the test on Klebsiella pneumoniae [7]) was inactive. Moreover, the outcome in the test on Escherichia coli, in the test with Nakaseomyces glabratus, in the test on Staphylococcus aureus [8] and with Candida albicans was inactive. Moreover, the MIC in test [1] was more than 100 µg/mL; in test [5], 39.3 µM; against Mycobacterium kansasii, more than 100 µg/mL.
In the case of `O=C(Nc1ccccc1Cl)c1cnc(NCCCCCO)cn1`, the outcome (in the test on Pichia kudriavzevii; in the test on Pseudomonas aeruginosa; with Aspergillus fumigatus; with Staphylococcus aureus [2]; in [3]; in the test with Trichosporon asahii) was inactive. The result (in the test on Klebsiella pneumoniae [4]; with Lichtheimia corymbifera; in the test on Candida tropicalis; in [6]; in the test with Enterococcus sp.; in the test with Klebsiella pneumoniae [7]) was inactive. The result in the test with Escherichia coli, in the test with Nakaseomyces glabratus, with Staphylococcus aureus [8] and in the test on Candida albicans was inactive. Moreover, the minimal inhibitory concentration (MIC) (in [1]; in [5]; against Mycobacterium kansasii) was more than 100 µg/mL throughout.
`O=C(Nc1ccccc1)c1cnc(NCCCO)cn1`: the result (with Pichia kudriavzevii; in the test on Pseudomonas aeruginosa; in the test on Aspergillus fumigatus; in the test on Staphylococcus aureus [2]; in [3]; in the test with Trichosporon asahii) was inactive. For the same compound, the result (in the test with Klebsiella pneumoniae [4]; with Lichtheimia corymbifera; in the test with Candida tropicalis; in [6]; in the test with Enterococcus sp.; in the test on Klebsiella pneumoniae [7]) was inactive. The result in the test with Escherichia coli, in the test with Nakaseomyces glabratus, in the test on Staphylococcus aureus [8] and in the test on Candida albicans was inactive. In addition, the MIC (in test [1]; in test [5]; with Mycobacterium kansasii) was more than 100 µg/mL in each case.
For the compound `COCCNc1cnc(C(=O)Nc2ccccc2Cl)cn1`, the outcome (in the test on Pichia kudriavzevii; with Pseudomonas aeruginosa; with Aspergillus fumigatus; in the test on Staphylococcus aureus [2]; in test [3]; with Trichosporon asahii) was inactive. The outcome (in the test with Klebsiella pneumoniae [4]; with Lichtheimia corymbifera; in the test on Candida tropicalis; in [6]; in the test with Enterococcus sp.; in the test on Klebsiella pneumoniae [7]) was inactive. For the same compound, the result in the test with Escherichia coli, with Nakaseomyces glabratus, with Staphylococcus aureus [8] and in the test with Candida albicans was inactive. Moreover, the minimum inhibitory concentration (MIC) (in test [1]; in test [5]; against Mycobacterium kansasii) was more than 100 µg/mL in each case.
With `Nc1cnc(C(=O)Nc2ccccc2Cl)cn1`, the result (in the test with Pichia kudriavzevii; in the test on Pseudomonas aeruginosa; with Aspergillus fumigatus; in the test with Staphylococcus aureus [2]; in test [3]; in the test on Trichosporon asahii) was inactive. Besides, the result (with Klebsiella pneumoniae [4]; in the test on Lichtheimia corymbifera; in the test with Candida tropicalis; in test [6]; with Enterococcus sp.; with Klebsiella pneumoniae [7]) was inactive. Further, the outcome in the test with Escherichia coli, with Nakaseomyces glabratus, in the test on Staphylococcus aureus [8] and with Candida albicans was inactive. For the same compound, the minimum inhibitory concentration (MIC) (in test [1]; in [5]; with Mycobacterium kansasii) was more than 100 µg/mL throughout.
For the compound `O=C(Nc1ccccc1)c1cnc(NCCCCO)cn1`, the outcome (with Pichia kudriavzevii; in the test with Pseudomonas aeruginosa; in the test with Aspergillus fumigatus; in the test on Staphylococcus aureus [2]; in [3]; with Trichosporon asahii) was inactive. Besides, the result (in the test with Klebsiella pneumoniae [4]; with Lichtheimia corymbifera; in the test on Candida tropicalis; in test [6]; with Enterococcus sp.; with Klebsiella pneumoniae [7]) was inactive. Also, the outcome in the test on Escherichia coli, in the test on Nakaseomyces glabratus, in the test with Staphylococcus aureus [8] and in the test on Candida albicans was inactive. In addition, the MIC in [1] is more than 100 µg/mL; in [5], 87.3 µM; against Mycobacterium kansasii, more than 100 µg/mL.
Turning to `O=C(Nc1ccccc1)c1cnc(NCCO)cn1`, the outcome (in the test on Pichia kudriavzevii; with Pseudomonas aeruginosa; in the test with Aspergillus fumigatus; in the test on Staphylococcus aureus [2]; in test [3]; in the test on Trichosporon asahii) was inactive. The result (in the test on Klebsiella pneumoniae [4]; in the test with Lichtheimia corymbifera; in the test on Candida tropicalis; in test [6]; with Enterococcus sp.; in the test on Klebsiella pneumoniae [7]) was inactive. The outcome in the test with Escherichia coli, in the test with Nakaseomyces glabratus, in the test with Staphylococcus aureus [8] and with Candida albicans was inactive. Moreover, the MIC (in test [1]; in test [5]; against Mycobacterium kansasii) was more than 100 µg/mL throughout.
In the case of `O=C(Nc1ccccc1Cl)c1cnc(NCCCc2ccccc2)cn1`, the outcome (with Pichia kudriavzevii; with Pseudomonas aeruginosa; in the test on Aspergillus fumigatus; in the test on Staphylococcus aureus [2]; in test [3]; in the test with Trichosporon asahii) was inactive. Besides, the result (in the test with Klebsiella pneumoniae [4]; in the test with Lichtheimia corymbifera; in the test on Candida tropicalis; in test [6]; with Enterococcus sp.; in the test with Klebsiella pneumoniae [7]) was inactive. In addition, the outcome with Escherichia coli, in the test with Nakaseomyces glabratus, in the test with Staphylococcus aureus [8] and with Candida albicans was inactive. Also, the MIC (in test [1]; in test [5]; with Mycobacterium kansasii) was more than 100 µg/mL throughout.
